Data reported in paper PMC4996933, “Shared active site architecture between archaeal PolD and multi-subunit RNA polymerases revealed by X-ray crystallography” (Nature Communications, 2016).

Molecular target: T1, PolD DP1 (144-622), proofreading exonuclease subunit (Pyrococcus abyssi, UniProt Q9V2F3)
T1 construct: gene polB; residues 144-622, flexible N-terminal region removed; N-terminal 14-His tag cut with TEV; E. coli BL21(DE3) Rosetta2; di-metal site Fe3+/Zn2+; two copies in the asymmetric unit
T1 sequence (Q9V2F3 141-619): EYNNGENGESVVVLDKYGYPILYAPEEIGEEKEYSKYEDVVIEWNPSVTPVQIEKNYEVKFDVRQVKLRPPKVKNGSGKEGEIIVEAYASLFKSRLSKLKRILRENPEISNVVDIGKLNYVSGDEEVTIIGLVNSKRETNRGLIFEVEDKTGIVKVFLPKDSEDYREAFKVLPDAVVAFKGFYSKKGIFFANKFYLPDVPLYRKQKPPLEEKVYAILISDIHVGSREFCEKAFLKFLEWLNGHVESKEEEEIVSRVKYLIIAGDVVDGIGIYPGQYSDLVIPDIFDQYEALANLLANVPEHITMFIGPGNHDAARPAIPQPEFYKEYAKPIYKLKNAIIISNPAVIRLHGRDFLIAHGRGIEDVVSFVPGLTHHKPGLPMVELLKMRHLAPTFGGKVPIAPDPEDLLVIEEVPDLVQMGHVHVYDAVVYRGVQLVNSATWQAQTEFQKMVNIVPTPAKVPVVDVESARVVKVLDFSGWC
Test: X-ray crystallography, co-crystallization, […] Å
Type: binding
Conditions: 5 mM dAMP, pH 6.7, 4 °C; Fe3+/Zn2+ nuclease active site; calcium acetate in crystallization buffer

Nc1ncnc2c1ncn2[C@H]1C[C@H](O)[C@@H](COP(=O)(O)O)O1 [dAMP]
X-ray crystallography, co-crystallization, 2.5 Å: DP1 was co-crystallized together with deoxy-adenosine monophosphate (dAMP)
